Values of other authors in US7129355B2, “Process for preparing kifunensine intermediate and kifunensine therefrom” (Industrial Research Limited, priority 2002, dated 2006).

Tested on: plant mannosidase II
Details: Elbein et al., J. Biol. Chem. 265, 15599, 1990

In the case of O=C1N[C@@H]2[C@@H](O)[C@@H](O)[C@H](O)[C@@H](CO)N2C1=O [Kifunensine], the “activity toward plant mannosidase II” value is listed as “inactive”.
